Values of other authors in patent publication US20100144855A1, “APPLICATION OF SEDOISOPROSAN FOR PREPARATION OF MEDICINE FOR TREATMENT OF HUMAN HBeAg POSITIVE CHRONIC HEPATITIS B” (priority 2008, published 2010).

Columns and labels:
[1] = animal experiments; cited from earlier work
[2] = tested on: lymphocytes; conditions: sedoisoprosan associated with ConA and LPS, in vitro; cited from earlier work
[3] = tested on: HBsAg and HBeAg; conditions: animal experiments; cited from earlier work

CC1(C)OC2C3COC(CO)(O3)C(O)C2O1 (centres unmarked) [sedoisoprosan, isopropylidene sedoheptulosan]
activity of ACP and TNE [1]: enhance | immune system [1]: regulate | mitogenic activity of ConA and LPS [2]: enhance | transformation of lymphocytes [2]: promote | secretion of HBsAg and HBeAg [3]: inhibit
